Test results from US9296734B2 (AMGEN INC., priority 2013, dated 2016).
Where two headings read alike, the source gives them in different places.

Assays:
[1] = target: Beta Secretase enzyme (BACE) (Homo sapiens (Human), UniProt P56817); assay: In vitro enzymatic BACE FRET assay; format: biochemical; conditions: average; read-out: BACE 1 FRET assay IC50
Outline: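 Reactions ran in 0.05 M acetate pH 4.2 with 10% DMSO final and 100 uM genapol. They were started with 50 nM peptide FRET substrate (fluorophore and quencher flanking the BACE cleavage site) and incubated one hour. Tris addition raised the pH to neutral to stop the reaction before fluorescence reading.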

[2] = test system: Abeta 40 in CSF and brain; assay: In vivo inhibition of beta-secretase: Abeta 40 reduction in CSF and brain of the rat; conditions: 10 mpk (unless otherwise noted), after 4 hrs
From the text: In Vivo Inhibition of Beta-Secretase
Several animal models, including mouse, rat, dog, and monkey, may be used to screen for inhibition of beta-secretase activity in vivo following administration of a test compound sample. Animals used in this invention can be wild type, transgenic, or gene knockout animals. […] A separate group of animals receive 2% hydroxypropyl methylcellulose, 1% Tween80 alone, containing no test compound, and serve as a vehicle-control group. At the end of the test period, animals are sacrificed and brain tissues, plasma or cerebrospinal fluid are collected. […] Homogenates are centrifuged at 355,000 g, 4° C. for 30 minutes. CSF or brain supernatants are then analyzed for the presence of A-beta peptide by specific sandwich ELISA assays based on ECL (Electrochemiluminescence) technology. For example, rat Abeta40 is measured using biotinylated-4G8 (Signet) as a capture antibody and Fab40 (an in-house antibody specific to the C-terminal of Abeta40) as a detection antibody.
Actual vehicles used: Oral: 2% HPMC, 1% Tween80, pH 2.2

Cathepsin D (Cat D) = Cathepsin D (Cat D) (Homo sapiens (Human), UniProt P07339); assay: In vitro enzymatic Cathepsin D (Cat D) FRET assay; format: biochemical; conditions: average; read-out: CatD IC50
Sequence of Cathepsin D (Cat D) (P07339 65-412, species assumed): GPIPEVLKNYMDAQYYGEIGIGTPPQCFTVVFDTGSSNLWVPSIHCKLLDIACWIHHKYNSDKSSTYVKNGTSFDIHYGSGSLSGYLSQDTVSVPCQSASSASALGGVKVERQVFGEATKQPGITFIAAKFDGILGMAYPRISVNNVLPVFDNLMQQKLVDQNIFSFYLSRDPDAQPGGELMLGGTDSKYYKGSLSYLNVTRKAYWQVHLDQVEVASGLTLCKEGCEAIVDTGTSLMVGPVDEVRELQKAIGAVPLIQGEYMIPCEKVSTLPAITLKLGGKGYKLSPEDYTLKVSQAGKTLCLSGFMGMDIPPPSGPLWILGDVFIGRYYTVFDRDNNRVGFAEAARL
Outline: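 CHO-expressed recombinant Cat D cleaves a fluorophore/quencher FRET peptide (20 nM) in 0.05 M citrate pH 3.5, 5 mM CHAPS, 10% DMSO final, over 1 h. Tris addition neutralizes pH to stop the reaction; fluorescence read at excitation 500 nm, emission 580 nm.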

[3] = test system: Aβ40 in conditioned medium of cells stably expressing Amyloid Precursor Protein (APP); assay: In vitro BACE cell-based assay (Aβ40 sandwich ELISA); conditions: Homo sapiens, HEK293, HEK cells; average; read-out: HEK cell assay IC50
Outline: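 Secreted Aβ40 was quantified by sandwich ELISA (pAb40 capture, biotinylated 6E10 detection, Europium time-resolved fluorescence). IC50 derived from percent inhibition versus concentration.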

Aβ in lumbar CSF = conditions: healthy volunteers, oral dosing of 30 or 90 mg; cited from earlier work
[4] = higher compound dose given for three months; cited from earlier work
CSF Aβ40 = conditions: healthy individuals, 36 h post-dose, cited from earlier work
[5] = Abeta 40, rat CSF, read-out: % reduction of rat CSF levels at 10 pmk
[6] = Abeta 40, rat brain, read-out: % reduction of rat brain levels at 10 mpk

Sequence of Beta Secretase enzyme (BACE) (P56817 46-501): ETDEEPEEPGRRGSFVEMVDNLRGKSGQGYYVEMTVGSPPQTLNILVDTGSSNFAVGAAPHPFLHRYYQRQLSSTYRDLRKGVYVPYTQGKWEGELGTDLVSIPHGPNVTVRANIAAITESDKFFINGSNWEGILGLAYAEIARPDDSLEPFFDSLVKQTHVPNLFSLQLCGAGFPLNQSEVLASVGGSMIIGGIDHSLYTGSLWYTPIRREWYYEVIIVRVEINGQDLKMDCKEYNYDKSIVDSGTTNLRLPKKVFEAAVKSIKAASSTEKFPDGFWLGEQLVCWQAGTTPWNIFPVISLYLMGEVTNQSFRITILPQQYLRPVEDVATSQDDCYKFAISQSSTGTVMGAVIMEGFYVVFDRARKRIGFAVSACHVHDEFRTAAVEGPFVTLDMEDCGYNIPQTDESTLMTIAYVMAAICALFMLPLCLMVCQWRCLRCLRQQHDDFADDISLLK

| Compound | IC50 [1] | inhibition in vivo at 10 mg/kg [2, 5] | inhibition in vivo at 10 mg/kg [2, 6] | IC50 (Cathepsin D (Cat D)) | IC50 [3] | also measured |
| --- | --- | --- | --- | --- | --- | --- |
| Cc1cc(NC(=O)c2ccc(Cl)cn2)cc([C@]2(CF)C[C@@H](C(F)(F)F)OC(N)=N2)c1F [Example 224, N-(3-((4S,6S)-2-amino-4-(fluoromethyl)-6-(trifluoromethyl)-5,6-dihydro-4H-1,3-oxazin-4-yl)-4-fluoro-5-methylphenyl)-5-chloropicolinamide] | 13 nM | 62% | 51% | 515000 nM | 7 nM |  |
| COc1cnc(C(=O)Nc2cc(C)c(F)c([C@]3(CF)C[C@@H](C(F)(F)F)OC(N)=N3)c2)cn1 [Example 227, N-(3-((4S,6S)-2-amino-4-(fluoromethyl)-6-(trifluoromethyl)-5,6-dihydro-4H-1,3-oxazin-4-yl)-4-fluoro-5-methylphenyl)-5-methoxypyrazine-2-carboxamide] | 30 nM | 69% | 65% | > 400000 nM | 23 nM |  |
| C[C@@]1(c2cc(-c3cncnc3)c(F)cc2F)CCSC(N)=N1 [LY2811376, (S)-4-(2,4-difluoro-5-pyrimidin-5-yl-phenyl)-4-methyl-5,6-dihydro-4H-[1,3]thiazin-2-ylamine] |  |  |  |  |  | Aβ reductions in lumbar CSF (Aβ in lumbar CSF): Prominent and long-lasting Aβ reductions in lumbar CSF |
| C[C@@]1(c2cc(-c3cncnc3)c(F)cc2F)CCSC(N)=N1 [LY 2811376] |  |  |  |  |  | rat toxicology finding [4]: damaged the pigment epithelium of the rat's eye |
| CN1C(=N)N[C@](C)(c2cc(NC(=O)c3ccc(F)cn3)ccc2F)CS1(=O)=O [MK-8931] |  |  |  |  |  | reduction of CSF Aβ40 concentrations (CSF Aβ40; single dose of 100 mg): 75%; reduction of CSF Aβ40 concentrations (CSF Aβ40; single dose of 550 mg): 92% |
